Data on 5 compounds can be found in patent publication US6525245B1, “Method for identifying components involved in signal transduction pathways in higher plants” (The Board of Regents of the University of Nebraska, priority 1999, dated 2003).

For one data set, the system named is AOX. The conditions noted are these: cited from earlier work; for effect on AOX transcription / effect on branched chain amino acid biosynthesis: Aubert et al. 1997.
In data set [1] the test system is AOX1a promoter. The experiment in a line: Luciferase expression in excised leaves of AOX1a promoter::luciferase transgenic lines, exposure to film. Type of data set: cell-based, Arabidopsis thaliana. The conditions noted are these: for luciferase response to application: lines PZB-ALN 26 and 47. The protocol:
Initial screening of the F1 plants was done by spraying excised leaves with 10 uM AA (FIG. 4A). The leaves were incubated for 4 hr in the light, then sprayed with luciferin, and exposed to autoradiographic film. […] Several pZB-ALN lines were used for imaging experiments employing a Hamamatsu photon-counting, CCD camera system (model C2400-75H).

The next data set relates to Arabidopsis plants. The data set is described as follows: Survival of Arabidopsis plants after treatment. The format is in vivo. How it is done:
In order for a screen involving application of antimycin A or sulfometuron methyl to succeed, plants must survive the screening procedure. […] Plants from line pZB-ALN 8 were used to produce the dose response curve shown in FIG. 6 were transferred to fresh growth plates (without antimycin A) after 36 h of antimycin A treatment. […] These plants remained green with healthy, expanded first true leaves and healthy roots and produced a normal-looking second set of true leaves.

For data set [2], the system named is AOX1a promoter. The experiment in a line: Dose-response of AOXP-driven luciferase expression in seedlings, photon-counting CCD camera. Type of data set: in vivo, Arabidopsis thaliana. The settings on record: line pZB-ALN 8. The protocol: Seeds from these lines were sterilized and germinated on filter discs on standard growth agar in six-well plates and then grown at 20° C. and 66 uE of continuous light for 7 days (to eliminate the possibility of circadian rhythm effects). A Hamamatsu CCD camera system was used to quantify the levels of AOXP-driven luciferase expression. […] Plants were imaged immediately following transfer to induction plates, then returned to the growth chamber under 66 uE continuous light and 20° C.

In the case of `COC(=O)c1ccccc1S(=O)(=O)NC(=O)Nc1nc(C)cc(C)n1` [sulfometuron methyl], in the data set on AOX, the “effect on AOX transcription” value is given as “increase in AOX transcription” and the “effect on branched chain amino acid biosynthesis” value is “inhibit branched chain amino acid biosynthesis”. Besides, the luciferase expression result in the data set on AOX1a promoter [1] (5 nM, 24 h following treatment, some of the lines) is “higher luciferase expression”. The “survival of plants after treatment” value with Arabidopsis plants (wild-type Arabidopsis plants sprayed with 5 uM or 5 nM) was “survive treatment”.

On to antimycin A, for which, in the data set with AOX1a promoter [2] (1.0 mM or 100 uM), the “peak induction of luciferase expression over the negative control” value is given as “about 17 fold”, the “time after transfer until which peak induction level is kept” value is “at least 10 h” and the “time of peak induction after application” value is given as “about 6 h”. Moreover, the “lowest concentration giving measurable induction” value with AOX1a promoter [2] was determined as 0.1 µM. In the data set with AOX (petunia cells, tobacco, Hensenula anomala), the “effect on AOX protein and transcript” value was “increases in AOX protein and transcript”. Moreover, in the data set with AOX1a promoter [1] (10 uM, 4 h after treatment, excised leaves, pZB-ALN and pZP-ALE lines, qualitative), the “luciferase expression versus untreated control leaves” value is given as “higher luciferase expression”. For the same compound, the “survival of plants after treatment” value in the data set on Arabidopsis plants (line pZB-ALN 8, 0.1, 1.0, 10, 100 and 1000 uM, 36 h treatment, six days after treatment) is “survived without any apparent developmental alterations”.

For the compound `COc1nc(C)nc(NC(=O)NS(=O)(=O)c2ccccc2Cl)n1` [chlorsulfuron], in the data set on AOX, the “effect on AOX transcription” value is “increase in AOX transcription” and the “effect on branched chain amino acid biosynthesis” value was “inhibit branched chain amino acid biosynthesis”.

Consider `O=C(O)c1ccccc1O` [salicylic acid], for which the AOX transcript accumulation entry with AOX (Sauromatum guttatum and tobacco) is reported as “accumulate”. In addition, the “luciferase response to application” value in the data set with AOX1a promoter [1] is “lower, but definite response”.

Take `O=C(O)CC(O)(CC(=O)O)C(=O)O` [citrate]: in the data set with AOX (increase in amount of citrate in tobacco cells), the “AOX mRNA accumulation” value is given as “accumulate”. Moreover, in the data set on AOX1a promoter [1], the “luciferase response to application” value is on record as “lower, but definite response”.
